PMC4580724 (Clinical Pharmacokinetics, 2015)
Values joined by “and” are separate entries in the source; they are usually repeats but may differ in a detail not shown here. Equal entries are not always repeated. Where two headings read alike, the source gives them in different places.

Assays:
[1] = format: in vivo, human; details: for AUC∞ geometric mean ratio test/reference (90 % CI) / C max geometric mean ratio test/reference (90 % CI): substrate + enzalutamide 160 mg/day vs substrate + placebo-to-match, n = 14
CYP2C9 = details: human hepatic microsomes; cited from earlier work
[2] = format: in vivo, human; details: for t max: median [range]; for AUCτ: one 24-h dosing interval at steady state, 14 patients, enzalutamide 160 mg once daily for 49 days
[3] = cited from earlier work
CYP2C8 = target: T1, CYP2C8 (Homo sapiens, UniProt P10632); details: human hepatic microsomes; cited from earlier work
T1 sequence (P10632 1-490): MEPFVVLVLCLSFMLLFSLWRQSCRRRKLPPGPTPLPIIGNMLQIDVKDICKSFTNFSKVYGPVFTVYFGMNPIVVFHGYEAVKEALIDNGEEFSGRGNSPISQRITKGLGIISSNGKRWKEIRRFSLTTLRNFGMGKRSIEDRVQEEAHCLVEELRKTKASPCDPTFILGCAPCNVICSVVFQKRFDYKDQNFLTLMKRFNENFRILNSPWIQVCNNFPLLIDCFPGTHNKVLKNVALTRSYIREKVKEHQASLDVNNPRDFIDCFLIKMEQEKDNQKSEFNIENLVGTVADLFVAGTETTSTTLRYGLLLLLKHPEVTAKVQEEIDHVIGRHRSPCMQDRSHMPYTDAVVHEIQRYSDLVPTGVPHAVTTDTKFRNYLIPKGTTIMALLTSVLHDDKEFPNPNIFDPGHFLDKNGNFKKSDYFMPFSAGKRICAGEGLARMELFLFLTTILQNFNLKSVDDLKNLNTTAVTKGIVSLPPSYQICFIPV

CYP2C19 = details: human hepatic microsomes; cited from earlier work
[4] = cited from earlier work; remark: listed apart in the source
CYP2B6 = details: human hepatic microsomes; cited from earlier work
[5] = format: in vivo, human
[6] = patients with mCRPC; cited from earlier work
CYP3A4 [7] = details: human primary hepatocyte cultures; cited from earlier work
[8] = cited from earlier work; remark: listed apart in the source
CYP3A4 [9] = assay: Clinical effect of enzalutamide on CYP3A4; details: enzalutamide 160 mg once daily; oral midazolam
[10] = Population pharmacokinetic modeling and simulation; design: species or system human; details: with gemfibrozil vs enzalutamide alone
[11] = arm 2
[12] = enzalutamide 160 mg/day vs placebo-to-match
[13] = 14 patients taking enzalutamide 160 mg once daily for 49 days, mean ± standard deviation
[14] = 14 patients taking enzalutamide 160 mg once daily for 49 days
[15] = with itraconazole vs enzalutamide alone, observed data
[16] = with itraconazole vs enzalutamide alone

OCc1ncc2n1-c1ccc(Cl)cc1C(c1ccccc1F)=NC2 [1-Hydroxy-midalozam, 1-hydroxy-midazolam]
decrease in AUC∞ by enzalutamide [1, 12]: 76% | AUC∞ geometric mean ratio test/reference (90 % CI) [1]: 0.24 (0.20–0.28) | C max geometric mean ratio test/reference (90 % CI) [1]: 0.29 (0.24–0.35)

COc1ccc2nc([S+]([O-])Cc3ncc(CO)c(OC)c3C)[nH]c2c1 (stereo not drawn) [5-Hydroxy-omeprazole]
decrease in AUC∞ by enzalutamide [1, 12]: 54% | AUC∞ geometric mean ratio test/reference (90 % CI) [1]: 0.46 (0.39–0.53) | C max geometric mean ratio test/reference (90 % CI) [1]: 0.64 (0.50–0.83)

CC(=O)C[C@@H](c1ccccc1)c1c(O)c2ccc(O)cc2oc1=O [7-Hydroxy-S-warfarin]
decrease in AUC∞ by enzalutamide [1, 12]: 53% | AUC∞ geometric mean ratio test/reference (90 % CI) [1]: 0.47 (0.35–0.63) | C max geometric mean ratio test/reference (90 % CI) [1]: 0.83 (0.71–0.99)

CC1(C)C(=O)N(c2ccc(C#N)c(C(F)(F)F)c2)C(=S)N1c1ccc(C(=O)O)c(F)c1 [Carboxylic acid metabolite]
inhibition of CYP2C9 (CYP2C9): lesser inhibitory effects | C max [2, 13]: 8860 ± 6520 ng/mL | C trough [2, 13]: 6320 ± 5190 ng/mL | t max [2, 14]: 3.5 [0.0–24.0] h | AUCτ ([2]; mean ± standard deviation): 193 ± 144 µg·h/mL | pharmacological activity (primary and secondary pharmacodynamics) [3]: pharmacologically inactive | inhibition of CYP2C8 (CYP2C8): may act as inhibitors | inhibition of CYP2C19 (CYP2C19): may act as inhibitors | plasma concentrations lower than enzalutamide ([4]; circulating concentrations): approximately 25% | inhibition of CYP2B6 (CYP2B6): lesser inhibitory effects

CNC(=O)c1ccc(N2C(=S)N(c3ccc(C#N)c(C(F)(F)F)c3)C(=O)C2(C)C)cc1F [Enzalutamide, enzalutamide, reference compound]
inhibition of CYP2C9 (CYP2C9): lesser inhibitory effects | C trough [2, 13]: 12000 ± 3510 ng/mL | CL/F [2, 13]: 0.52 ± 0.09 L/h | concentration at 49 d ([2]; human, plasma, oral, 160 mg once daily): 12000 ng/mL | Cmax ([2]; human, plasma, oral, 160 mg, C max, 14 patients taking enzalutamide 160 mg once daily for 49 days, mean ± standard deviation): ~17000 ng/mL | inhibition of CYP2C8 (CYP2C8): may act as inhibitors | increase in AUC∞ [5, 15]: 1.41 fold | inhibition of CYP2C19 (CYP2C19): may act as inhibitors | maximum tolerated dose [6]: 240 mg/day | induction of CYP3A4 messenger RNA and enzymatic activity (CYP3A4 [7]): may cause increases in messenger RNA and enzymatic activity for CYP3A4 | aqueous solubility [8]: ≤ 2.0 µg/mL | CYP3A4 induction classification (CYP3A4 [9]): strong inducer | inhibition of CYP2B6 (CYP2B6): lesser inhibitory effects | increase in AUC∞ [10]: 4.26 fold

CC(O)c1ccc(CCOc2ccc(CC3SC(=O)NC3=O)cc2)nc1 (stereo not drawn) [Hydroxy-pioglitazone (M-IV), Hydroxy-pioglitazone]
decrease in AUC∞ by enzalutamide [1, 12]: 37% | AUC∞ geometric mean ratio test/reference (90 % CI) [1]: 0.63 (0.52–0.77) | C max geometric mean ratio test/reference (90 % CI) [1]: 0.60 (0.52–0.70)

CC1(C)C(=O)N(c2ccc(C#N)c(C(F)(F)F)c2)C(=S)N1c1ccc(C(N)=O)c(F)c1 [N-desmethyl enzalutamide]
inhibition of CYP2C9 (CYP2C9): lesser inhibitory effects | C max [2, 13]: 12700 ± 3770 ng/mL | C trough [2, 13]: 10600 ng/mL and 10600 ± 3270 ng/mL | t max [2, 14]: 4.0 [0.0–24.0] h | AUCτ ([2]; mean ± standard deviation): 278 ± 85.5 µg·h/mL | inhibition of CYP2C8 (CYP2C8): may act as inhibitors | decrease in Cmax ([5]; with gemfibrozil vs enzalutamide alone): 44% | decrease in AUC18 d ([5]; with gemfibrozil vs enzalutamide alone, observed data): 67% | decrease in AUC18 d [5, 16]: 4% | decrease in Cmax [5, 16]: 14% | increase in AUC∞ [5, 15]: 1.21 fold | inhibition of CYP2C19 (CYP2C19): may act as inhibitors | circulating plasma concentrations relative to enzalutamide [4]: approximately the same plasma concentrations as enzalutamide | inhibition of CYP2B6 (CYP2B6): lesser inhibitory effects | decrease in AUC∞ [10]: 25%

CC(=O)C[C@H](c1ccccc1)c1c(O)c2ccccc2oc1=O [R-warfarin, reference compound]
decrease in AUC∞ by enzalutamide [1, 12]: 45%

CC(=O)C[C@@H](c1ccccc1)c1c(O)c2ccccc2oc1=O [S-warfarin, reference compound]
decrease in AUC∞ by enzalutamide [1, 12]: 56%

Cc1ccc(C)c(OCCCC(C)(C)C(=O)O)c1 [gemfibrozil]
adverse event above NCI-CTCAE grade 1 with possible relationship [11]: grade 2 flatulence in one subject

Cc1ncc2n1-c1ccc(Cl)cc1C(c1ccccc1F)=NC2 [midazolam, reference compound]
decrease in AUC∞ by enzalutamide [1, 12]: 86% | AUC∞ geometric mean ratio test/reference (90 % CI) [1]: 0.14 (0.12–0.17) | C max geometric mean ratio test/reference (90 % CI) [1]: 0.23 (0.20–0.27)

COc1ccc2[nH]c([S+]([O-])Cc3ncc(C)c(OC)c3C)nc2c1 (stereo not drawn) [omeprazole, reference compound]
decrease in AUC∞ by enzalutamide [1, 12]: 70% | AUC∞ geometric mean ratio test/reference (90 % CI) [1]: 0.30 (0.24–0.36) | C max geometric mean ratio test/reference (90 % CI) [1]: 0.38 (0.26–0.54)

CCc1ccc(CCOc2ccc(CC3SC(=O)NC3=O)cc2)nc1 (stereo not drawn) [pioglitazone, reference compound]
increase in AUC∞ by enzalutamide [1, 12]: 20% | AUC∞ geometric mean ratio test/reference (90 % CI) [1]: 1.20 (0.98–1.47) | C max geometric mean ratio test/reference (90 % CI) [1]: 0.82 (0.67–1.01)
